For assay [1] the following is noted: administered subcutaneously; cited from earlier work.
For assay [2] the following is noted: type 2 diabetic patients, cited from earlier work.
For assay [3], the target named is T1, GLP-1 Receptor (Rattus norvegicus, UniProt P32301).
T1 construct: endogenous in cells; host or cells: INS-1E cells
T1 sequence (P32301 22-463): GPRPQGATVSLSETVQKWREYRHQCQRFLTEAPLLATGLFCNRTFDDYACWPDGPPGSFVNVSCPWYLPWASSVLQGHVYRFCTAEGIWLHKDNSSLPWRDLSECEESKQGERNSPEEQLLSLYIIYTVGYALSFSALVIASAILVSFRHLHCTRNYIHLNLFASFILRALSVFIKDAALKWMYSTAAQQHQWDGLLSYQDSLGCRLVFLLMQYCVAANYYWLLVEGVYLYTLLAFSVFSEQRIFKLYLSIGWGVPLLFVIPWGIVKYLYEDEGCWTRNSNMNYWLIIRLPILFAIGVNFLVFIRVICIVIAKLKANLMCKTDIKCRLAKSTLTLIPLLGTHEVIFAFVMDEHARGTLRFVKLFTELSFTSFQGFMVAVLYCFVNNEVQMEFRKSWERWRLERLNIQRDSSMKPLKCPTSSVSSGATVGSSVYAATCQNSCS
Put plainly: LANCE cAMP assay in INS-1E cells. The assay is classed as cell-based. Conditions: FIG. 1. The procedure: The peptide-conjugates were tested for activity using the cAMP assay which measures cAMP produced upon modulation of adenylyl cyclase activity by GPCRs. • cAMP Assay The LANCE™ cAMP assay (Hemmila I. 1999. LANCE™: Homogeneous Assay Platform for HTS. J Biomol Screen. 4(6), 303-308) is a homogeneous time-resolved fluorescence resonance energy transfer (TR-FRET) immunoassay. The assay is based on the competition between a europium-labeled cAMP tracer and sample cAMP for binding sites on cAMP-specific antibodies labeled with the dye Alexa Fluor® 647. The europium-labeled tracer complex is formed by the tight interaction between Biotin-cAMP and streptavidin labeled with Europium-W8044 chelate. When antibodies are bound to the Eu-SA/b-cAMP tracer, light pulse 340 nm excites the Eu-chelate molecules of the tracer. […] The fluorescence intensity measure at 665 nm will decrease in the presence of cAMP from the test samples and resulting signals will be inversely proportional to the cAMP concentration of a sample (LANCE cAMP manual). • Cells and Assay. […]
For the assay, INS-1E cells were plated at confluence in 96-well plates (Costar 3610) and allowed to recover for 4 days in normal growth media. […] The plates were incubated at room temperature for 1 hour and then fluorescence intensity was measured at 665 nm. Cyclic AMP concentrations were determined against a standard curve.

Ends that are not written are not given here.

As to “GLP-1 (7-36) amide: GLP-1 (7-36) amide, GLP-1 peptide of the background section (HAEGTFTSDVSSYLEGQAAKEFIAWLVKGR-NH2; UniProt P01275 98-127, looked up)”, the time action entry in assay [1] is “about 50 minutes”. Take “GLP-1: Glucagon like peptide-1, peptide secreted from the L-cells of the intestine; given as six-week infusion (HAEGTFTSDVSSYLEGQAAKEFIAWLVKGRG-NH2; listed as Homo sapiens)”: the “fasting and 8-hour mean plasma glucose levels” value in assay [2] (six-week infusion) is recorded as “lowered”. Also, in assay [2], the β-cell function entry is “improvement”. For the substance “His-[D-Ala]-Glu-Gly-Thr-Phe-Thr-Ser-Asp-Val-Ser-Ser-Tyr-Leu-Glu-Gly-Gln-Ala-Ala-Lys-Glu-Phe-Ile-Ala-Trp-Leu-Val-Lys-Gly-Arg-Gly-(N-3-aminopropyl)-PEG3-NH—CO—CH2—NH—NH2 [Peptide 1]”, the “bioactivity: ability to stimulate cAMP compared to wild-type GLP-1” value in assay [3] is listed as “no loss in bioactivity”.

The values are drawn from patent publication US20120189627A1, “Semi-Synthetic GLP-1 Peptide-FC Fusion Constructs, Methods and Uses” (priority 2007, published 2012).
